Data published in US12128048B2, “Combination therapies using PRMT5 inhibitors for the treatment of cancer” (Mirati Therapeutics, Inc., priority 2021, dated 2024).

Experiments:
[1] = system: KRAS^G12C and CDKN2A/MTAP^DEL lung tumor xenograft LU99 model; assay: LU99 lung tumor xenograft, Example 2 (MRTX7477 with or without MRTX849); conditions: MRTX7477 200 mg/kg PO BID, MRTX849 30 mg/kg PO QD
Experimental: (§1) Immunodeficient female nu/nu mice were implanted with 5×10^6 LU99 lung cancer cells in 50% Matrigel. Tumors were measured using calipers until they reached approximately 150-200 mm^3. Animals were randomized to receive A) vehicle (0.5% methylcellulose (4000 cps)/0.2% Tween80 in water), B) a PRMT5 inhibitor, C) KRAS^G12C inhibitor, or D) the PRMT5 inhibitor and KRAS^G12C inhibitor, all administered orally (PO) for 21 days. Tumor volume was measured twice a week (n=5/treatment group). Average tumor volume and standard error of the mean was calculated and plotted at each study day in GraphPad.

[2] = system: KRAS^G12C and CDKN2A/MTAP^DEL lung tumor xenograft LU99 model; assay: LU99 lung tumor xenograft, Example 1 (MRTX9768 with or without MRTX849); conditions: MRTX9768 100 mg/kg PO BID, MRTX849 30 mg/kg PO QD
Experimental: as §1

[3] = system: LU99 PRMT5-041 lung tumor xenograft model; assay: LU99 PRMT5-041 tumor xenograft, Example 3 (MRTX1719 with or without MRTX849); assay type: in vivo, mice; conditions: MRTX1719 50 mg/kg PO QD, MRTX849 30 mg/kg PO QD
Experimental: as §1

[4] = system: SW1573 PRMT5-044 lung tumor xenograft model; assay: SW1573 PRMT5-044 tumor xenograft, Example 4 (MRTX1719 with or without MRTX849); assay type: in vivo, mice; conditions: MRTX1719 50 mg/kg PO QD, MRTX849 100 mg/kg PO QD
Experimental: as §1

Cn1ncc(-c2ccc3c(=O)[nH]nc(CN)c3c2)c1-c1ccc2ccccc2c1C#N [MRTX7477]
Tumor Volume ([1]; Day 1): 214.5 mm^3
Tumor Volume ([1]; Day 5): 210.7 mm^3
Tumor Volume ([1]; Day 8): 177.1 mm^3
Tumor Volume ([1]; Day 12): 185.3 mm^3
Tumor Volume ([1]; Day 15): 189.1 mm^3
Tumor Volume ([1]; Day 19): 229.5 mm^3
Tumor Volume ([1]; Day 21): 267.5 mm^3
Tumor Volume ([1]; Day −2): 129.4 mm^3

Cn1ncc(-c2ccc3c(=O)[nH]nc(CN)c3c2)c1-c1c(F)cc2ccccc2c1C#N [MRTX9768]
Tumor Volume Mean ([2]; Day 0): 183.59 mm^3
Tumor Volume Mean ([2]; Day 3): 265.26 mm^3
Tumor Volume Mean ([2]; Day 7): 331.80 mm^3
Tumor Volume Mean ([2]; Day 10): 349.53 mm^3
Tumor Volume Mean ([2]; Day 14): 406.58 mm^3
Tumor Volume Mean ([2]; Day 17): 431.91 mm^3
Tumor Volume Mean ([2]; Day 21): 458.95 mm^3

C=C(F)C(=O)N1CCN(c2nc(OC[C@@H]3CCCN3C)nc3c2CCN(c2cccc4cccc(Cl)c24)C3)C[C@@H]1CC#N [MRTX849]
Tumor Volume Mean ([3]; Day 0): 154 mm^3
Tumor Volume Mean ([3]; Day 5): 142 mm^3
Tumor Volume Mean ([3]; Day 8): 117 mm^3
Tumor Volume Mean ([3]; Day 12): 87 mm^3
Tumor Volume Mean ([3]; Day 15): 81 mm^3
Tumor Volume Mean ([3]; Day 20): 84 mm^3
Tumor Volume Mean ([3]; Day 22): 103 mm^3
Tumor Volume Mean ([4]; Day 0): 139 mm^3
Tumor Volume Mean ([4]; Day 3): 150 mm^3
Tumor Volume Mean ([4]; Day 8): 188 mm^3
Tumor Volume Mean ([4]; Day 10): 236 mm^3
Tumor Volume Mean ([4]; Day 14): 285 mm^3
Tumor Volume Mean ([4]; Day 17): 320 mm^3
Tumor Volume Mean ([4]; Day 26): 361 mm^3
